Experiments:
As3 = assay: microplate specificity test with on- and off-target heavy metals (fluorescence); assay type: cell-based, E. coli; conditions: on-target = 1, no-toxin control = 0; As 1.3, Cd 0.44, Cr(VI) 2, Cu 20, Pb 1, Hg 0.1, Co 20, Fe 500, Ni 1.7, Zn 7.6 μM
Description: Each column represents the fluorescence response of a strain to the on-target metal (normalized to “1”) and all off-target metals, where “0” represents the unchanged response for the no-toxin control.
Although the ability to sense cobalt, iron, nickel, and zinc is of secondary importance, these heavy metals were included as potential off-target inducers because they may be present in the natural water supply under test. […] This combinatorial logic was implemented in algorithms.

E. coli MG1655/As7 = assay: 8-strain chip induction (fluorescence induction ratio); assay type: cell-based; conditions: toxin at t=0, pure water at t=2 hours; arsenic 0.2 μM
Description: (§1) An overview of the sensor can be seen in FIG. 39. In order to acquire the large amount of data required to successfully train the classifier, five replicates of the fully self-contained device prototype were built, in which the microfluidic devices are mounted and imaged using custom-designed optics as shown in some embodiments herein (Milestone 6.9). The majority of the data for this project was acquired using a novel microfluidic device capable of housing eight different bacterial strains that receive media from a shared source. […] The design was expanded to house 18 strains and we have begun taking data with this new chip to provide larger datasets to the classifier. A detailed CAD drawing of this device can be seen in FIG. 56. The 18 cell trapping regions are vacuum-loaded from 18 downstream fluidic ports. Long, serpentine channels upstream of the trapping regions serve as fluidic buffer zones to prevent the cross-contamination of strains while loading. The toxin concentration is controlled dynamically by a peristaltic pump that mixes a water/toxin combination (representing the source water stream) with a concentrated medium stock.
(§2) In each panel, the time series data for the “on-target” responding strain is plotted in bold.

GFP sensor strains = assay: SVM classification of GFP sensor responses (toxin / no toxin); assay type: cell-based; conditions: from classification accuracy and ROC curves
Description: Computational models to determine the threshold of detection for specific sensors based on models of experimental GFP responses. We used machine learning techniques to determine the relationships between the GFP output signal and the presence of a toxin. We have created a database containing the collected sensor response data. We have quantified the GFP threshold of detection for each sensor construct. We have constructed Receiver Operating Characteristic (ROC) curves for each sensor to achieve robust sensing. We constructed machine learning models capable of inferring the relationships between the GFP sensor responses and the presence or absence of a toxin at a given concentration. The algorithm learns these relationships from a set of training samples (GFP sensor responses) defined by the set of experimental conditions from which they were generated. The aim of the algorithm is to provide a general method capable of determining the experimental conditions associated with GFP sensor responses through the use of historical data. Specifically, we have built classification models based on Support Vector Machines (SVMs), which is one of the most popular classifiers due to its excellent performance in many contexts and its solid mathematical basis (1). For each toxin and concentration, we solved a binary classification problem in which the positive class represents the presence of the toxin in water and the negative class is associated with clean environments. Patterns were constructed with features containing GFP sensor responses at various timestamps to capture the temporal dynamics of the GFP signal. The optimal meta-parameters of the SVM classifier were determined by applying a 5-crossvalidation during the training phase (2). In order to have a reliable estimate of the performance of the model when deployed in real environments, we measured its performance over a set of samples (test patterns) not seen during the training phase. The SVM's performance was determined by the percentage of test samples correctly labeled as toxin/no toxin (classification accuracy). 80% of samples were used for training the SVM models and the remaining 20% of samples was used to evaluate their effectiveness. We generated 20 random training/test partitions to have an estimate of performance independent of the data partition.
Specifically, we have built classification models based on Support Vector Machines (SVMs), which is one of the most popular classifiers due to its excellent performance in many contexts and its solid mathematical basis. For each toxin and concentration, we solved a binary classification problem in which the positive class represents the presence of the toxin in water and the negative class is associated with clean environments. Patterns were constructed with features containing GFP sensor responses at various timestamps to capture the temporal dynamics of the GFP signal. The optimal meta-parameters of the SVM classifier were determined by applying a 5-crossvalidation during the training phase.
In order to have a reliable estimate of the performance of the model when deployed in real environments, we measured its performance over a set of samples (test patterns) not seen during the training phase. The SVM's performance was determined by the percentage of test samples correctly labeled as toxin/no toxin (classification accuracy). 80% of samples were used for training the SVM models and the remaining 20% of samples was used to evaluate their effectiveness. We generated 20 random training/test partitions based on data collected in single-strain chips (no crosstalk data) to have an estimate of performance.

E. coli MG1655/Co7 = assay: 8-strain chip induction (fluorescence induction ratio); assay type: cell-based; conditions: toxin at t=0, pure water at t=2 hours; chromium(VI) 0.5 μM
Description: as §1, §2

E. coli MG1655 cells = assay: batch growth curves of cells exposed to toxin around the EPA limit; assay type: cell-based; conditions: batch culture, levels around the EPA limit
Description: In determining the toxin concentrations for exposure, EPA limit was explored. […] The general strategy was to examine the cellular RNA response at toxin levels where the cells are responding specifically to the presence of the toxin without triggering a universal (and unspecific) cellular stress response.

E. coli MG1655/Cu1 [1] = assay: on-chip time-lapse induction of promoter construct (GFP, gill chip); assay type: cell-based
Description: (§3) For on-chip induction experiments, strains were loaded into the device and grown in M9 minimal medium with 0.4% glucose and 50 μg/ml spectinomycin (for plasmid maintenance) for 2 days in the absence of toxin. Cells were imaged under 4× brightfield and GFP fluorescence filters on an Olympus IX-81 microscope every 2 min for 6 h under these non-inducing conditions to generate a fluorescence baseline. The toxin was then introduced to induce GFP expression and the cells were imaged every 2 min for 6 h.
(§4) To determine the response to toxin induction, the raw fluorescence images before and after induction were compared. The image stacks were analyzed using a custom ImageJ script to measure the average GFP signal over time for each cell trap. Any linear trend in the uninduced fluorescence data due to cell growth was subtracted from the data. In this manner, the dynamic signal-to-noise ratio (SNR) was calculated as: (current fluorescence−mean uninduced fluorescence)/(standard deviation of uninduced fluorescence).
(§5) This microfluidic platform was then used to measure the response of several toxin responsive promoter constructs identified from the literature and synthesized by Transcriptic. […] Note that SNR values greater than 2 indicate a significant response.

[2] = tested on: E. coli MG1655 containing pCueCopA; assay: on-chip step-induction of copper-sensing plasmid pCueCopA (GFP); assay type: cell-based; conditions: pCueCopA in E. coli MG1655, LB medium
Description: Second, induction of pCue-CopA, a copper-sensing plasmid, was tested in the microfluidic device. A recombinant strain of E. coli MG1655 containing pCueCopA was vacuum-loaded into a microfluidic device, grown to confluence, and step-induced with copper sulfate (CuSO4) in LB medium. Images were collected using an Etaluma LumaScope microscope with 20× objective magnification. Step induction was again performed using the “Dial-A-Wave” automated flow control system. The cells were sequentially exposed to copper concentrations of 0 μM, 25 μM, 52 μM, 77 μM, and 99 μM in 6-h windows.

E. coli MG1655/Cu1 [3] = assay: 8-strain chip induction (fluorescence induction ratio); assay type: cell-based; conditions: toxin at t=0, pure water at t=2 hours; copper 5, lead 1.8 μM
Description: as §1, §2

E. coli MG1655/Cd1 = assay: as above; assay type: cell-based; conditions: toxin at t=0, pure water at t=2 hours; cadmium 0.05, lead 1.8 μM
Description: as §1, §2

E. coli MG1655/Hg3 = assay: as above; assay type: cell-based; conditions: toxin at t=0, pure water at t=2 hours; cadmium 0.05, mercury 0.2 μM
Description: as §1, §2

E. coli LABEC01/Pb2 = assay: on-chip time-lapse induction of promoter construct (GFP, gill chip); assay type: cell-based
Description: as §3, §4, §5

Row | Molecule | fluorescence response of strain As3 (on-target arsenic) (As3) | threshold of detection (GFP sensor strains) | growth phase lag of cells exposed to toxin (E. coli MG1655 cells) | GFP response of strain Cu1 (E. coli MG1655/Cu1 [3]) | GFP response of strain Cd1 (E. coli MG1655/Cd1) | GFP response of strain Hg3 (E. coli MG1655/Hg3) | other results
1 | [As] [Arsenic] | 1.00 |  |  |  |  |  | GFP response of strain As7 (E. coli MG1655/As7): sensitively responding
2 | [Cr+6] [Chromium(VI)] | −0.22 | 1.25 µM | exhibited this growth phase lag |  |  |  | GFP response of strain Co7 (E. coli MG1655/Co7): responding
3 | [Cu] [Copper] |  | 5 µM | delay the onset of the exponential growth phase | sensitively responding |  |  | SNR after 6 h (E. coli MG1655/Cu1 [1]; 25 μM copper, 6 h induction, SNR > 2 = significant response): 65; Concentration Sensed in Microfluidic Device (E. coli MG1655/Cu1 [1]; cueR/pcopA from E. coli genome, native RBS): 25 µM; copper concentration detected on-chip (GFP) [2]: 25 µM
4 | [Cd] [Cadmium] | −0.13 | 0.44 µM |  |  | responding | responding | 
5 | [Pb] [Lead] | −0.05 | 1.8 µM |  | responding at lesser magnitudes | responding at lesser magnitudes |  | SNR after 6 h (E. coli LABEC01/Pb2; 7 μM lead, 6 h induction, SNR > 2 = significant response): 18; Concentration Sensed in Microfluidic Device (E. coli LABEC01/Pb2; pbrR/ppbrR from C. metallidurans plasmid, synthetic RBS): 7 µM
6 | Mercury | −0.18 | 1 µM | did not exhibit this growth phase lag |  |  | sensitively responding | 

From patent publication US20220057378A1, “MICROBIAL MICROFLUIDIC BIOSENSOR” (priority 2015, published 2022)
